Laboratory results: publication PMC10054634, “Chemical Constituents of Thesium chinense Turcz and Their In Vitro Antioxidant, Anti-Inflammatory and Cytotoxic Activities” (Molecules, 2023)
Entries after “also recorded” stand apart in the source; their conditions may differ. Where two headings read alike, the source gives them in different places.

How the values were obtained:
[1] = DPPH radical scavenging assay; conditions: for SC50: concentration required for 50% reduction of DPPH radicals, 37 °C, 30 min, 517 nm, nc = SC50 cannot be calculated due to weak or no related activities; for antioxidant activity on DPPH radical scavenging (in words): compared with positive control ascorbic acid
Method: The 2, 2-diphenyl-1-picrylhydrazyl (Aldrich Chem. Co. Ltd, Shanghai, China) radical scavenging activity assay was performed according to the previously published method with some modification. Test samples were dissolved in MeOH to six different concentrations ranging from 3.125 to 100 μM. Then, 100 μL of 100 μM DPPH in MeOH were mixed with 100 μL of samples at different concentrations in the wells of 96-well plates. The reaction mixtures were incubated in the dark at 37 °C for 30 min and then measured at 517 nm. Ascorbic acid was used as the positive control. The scavenging activity (SC) was estimated as follows: % SC = [1 − (Asample − Ablank)/Acontrol] ×100. Asample was the equivalent mixture of test sample and DPPH solution. Ablank was the equivalent mixture of test sample and MeOH solution. Acontrol was the equivalent mixture of DPPH and MeOH solution. The SC50 values were used to evaluate the antioxidant activities of isolated compounds. The experiments were performed in triplicate, and the data were expressed as the means ± SD of three independent experiments.

SiHa = assay: Cytotoxic assay (CCK-8), SiHa; type: cell-based, human; conditions: Homo sapiens, 48 h, mean ± SD (n = 3)
Method: (§1) Four human cancer cell lines, A549, NCI-H292, SiHa and MKN45, were purchased from the Cell Bank of the Chinese Academy of Sciences (Shanghai, China). […] Cisplatin (Abmole Bioscience, Shanghai, China) was used as positive control.
(§2) A total of 180 μL of cancer cells (5 × 10^3) were plated in each well of 96-well plates and cultured for 24 h, then the supernatant of the culture was discarded and 180 μL complete medium with different concentrations of test samples were added into triplicate wells of each cell line, respectively. Thereafter, A549, NCI-H292, SiHa and MKN45 were incubated for 48 h, respectively. The cell viability was evaluated by Cell Counting Kit-8 (CCK-8, Best Bio., Beijing, China), respectively. The experiments were performed in triplicate, and the data were expressed as the means ± SD of three independent experiments.

NCI-H292 = assay: Cytotoxic assay (CCK-8), NCI-H292; type: cell-based, human; conditions: Homo sapiens, NCI-H292, 48 h, mean ± SD (n = 3)
Method: as §1, §2

[2] = Cytotoxicity in RAW 264.7 cells (CCK-8); conditions: mouse
Method: The cell viability was determined by the CCK-8 assay method. The cytotoxicity was calculated from the plotted results using untreated cells at 100%.

A549 = assay: Cytotoxic assay (CCK-8), A549; type: cell-based, human; conditions: Homo sapiens, A549, 48 h, mean ± SD (n = 3)
Method: as §1, §2

[3] = tested on: NO production in LPS-activated RAW 264.7 cells; assay: Inhibition of NO production in LPS-activated RAW 264.7 cells (Griess reaction); type: cell-based; conditions: Mus musculus, read-out: IC50 (NO inhibitory activity)
Method: The macrophage RAW 264.7 cells were obtained from the Cell Bank of the Chinese Academy of Sciences (Shanghai, China). A total of 180 μL of RAW 264.7 cells (1 × 10^4) were plated respectively in each well of 96-well plate and cultured for 24 h, then the supernatant of the culture was discarded and 180 μL complete medium with 1 μg/mL LPS and different concentrations of test samples were added into triplicate wells for 24 h. The inhibition effects on LPS-stimulated NO production was evaluated by the Griess reaction assay. The experiments were performed in triplicate, and the data were expressed as the means ± SD of three independent experiments.

MKN45 = assay: Cytotoxic assay (CCK-8), MKN45; type: cell-based, human; conditions: Homo sapiens, MKN-45, MKN45, 48 h, mean ± SD (n = 3)
Method: as §1, §2

[4] = tested on: LPS-induced acute lung injury; design: method as in PMID 34417573, PMID 34038447; conditions: mice; cited from earlier work
[5] = RAW264.7, RAW 264.7, 1 μg/mL LPS, 24 h, mean ± SD (n = 3)

Compound: O=C1O[C@H]([C@@H](O)CO)C(O)=C1O [Ascorbic acid, reference compound]
- SC50 [1]: 15.6 ± 0.8 µM
- SC50 ([1]; listed as ascorbic acid): 15.5 ± 0.8 µM

Compound: OCCc1cc(O)cc(O[C@@H]2O[C@H](CO)[C@@H](O)[C@H](O)[C@H]2O)c1 [Compound 7, 3,5-dihydroxyphenethyl alcohol 3-O-β-D-glucopyranoside]
- IC50 (SiHa): > 200 µM
- IC50 (NCI-H292): > 200 µM
- antioxidant activity on DPPH radical scavenging (in words) [1]: weak antioxidant activities; also recorded: weak activity
- SC50 [1]: 255.2 ± 12.6 µM
- IC50 [2]: > 200 µM
- IC50 (A549): > 200 µM
- IC50 [3, 5]: > 200 µM
- IC50 (MKN45): > 200 µM

Compound: COc1cc(C(O)C(CO)Oc2c(OC)cc(C3OCC4C(c5ccc(OC6OC(CO)C(O)C(O)C6O)c(OC)c5)OCC34)cc2OC)ccc1O (centres unmarked) [Compound 9, samsesquinoside]
- IC50 (SiHa): > 200 µM
- IC50 (NCI-H292): > 200 µM
- SC50 [1]: 47.3 ± 2.3 µM
- IC50 [2]: > 200 µM
- IC50 (A549): > 200 µM
- IC50 [3, 5]: > 200 µM
- IC50 (MKN45): > 200 µM

Compound: COc1cc(C2OCC3C(c4ccc(OC5OC(CO)C(O)C(O)C5O)c(OC)c4)OCC23)ccc1O [Compound 10, pinoresinol-4-O-D-glucoside]
- IC50 (SiHa): > 200 µM
- IC50 (NCI-H292): > 200 µM
- SC50 [1]: 30.5 ± 6.5 µM
- IC50 [2]: > 200 µM
- IC50 (A549): > 200 µM
- IC50 [3, 5]: > 200 µM
- IC50 (MKN45): > 200 µM

Compound: COc1cc(C2OCC3C(c4cc(OC)c(OC5OC(CO)C(O)C(O)C5O)c(OC)c4)OCC23)cc(OC)c1O [Compound 11, syringaresinol-4′-O-β-D-glucopyranoside]
- IC50 (SiHa): > 200 µM
- IC50 (NCI-H292): > 200 µM
- SC50 [1]: 16.2 ± 1.6 µM
- IC50 [2]: > 200 µM
- IC50 (A549): > 200 µM
- IC50 [3, 5]: > 200 µM
- IC50 (MKN45): > 200 µM

Compound: COc1cc(C(O)C(CO)Oc2c(OC)cc(C(O)C(O)CO)cc2OC)ccc1O (stereo not drawn) [Compound 17, (erythro, erythro)-1-[4-[2-hydroxy-2-(4-hydroxy-3-methoxy-phenyl)-1-(hydroxymethyl)ethoxy]-3,5-dimethoxyphenyl]-1,2,3-propanetriol]
- IC50 (SiHa): > 200 µM
- IC50 (NCI-H292): > 200 µM
- antioxidant activity on DPPH radical scavenging (in words) [1]: moderate activity
- IC50 [2]: > 200 µM
- IC50 (A549): > 200 µM
- IC50 [3, 5]: > 200 µM
- IC50 (MKN45): > 200 µM

Compound: COc1cc(C(O)C(CO)Oc2ccc(C(O)C(O)CO)cc2OC)ccc1O (centres unmarked) [Compound 18, 1-(4-hydroxy-3-methoxy)-phenyl-2-[4-(1,2,3-trihydroxypropyl)-2-methoxy]-phenoxy-1,3-propan-diol]
- IC50 (SiHa): > 200 µM
- IC50 (NCI-H292): > 200 µM
- antioxidant activity on DPPH radical scavenging (in words) [1]: weak antioxidant activities; also recorded: moderate activity
- SC50 [1]: 127.9 ± 15.4 µM
- IC50 [2]: > 200 µM
- IC50 (A549): > 200 µM
- IC50 [3, 5]: > 200 µM
- IC50 (MKN45): > 200 µM

Compound: COc1cc([C@@H]2OC[C@@H](Cc3ccc(O[C@@H]4O[C@H](CO)[C@@H](O)[C@H](O)[C@H]4O)c(OC)c3)[C@H]2CO)ccc1O [Compound 19, lariciresinol-4-O-β-D-glucoside]
- IC50 (SiHa): > 200 µM
- IC50 (NCI-H292): > 200 µM
- antioxidant activity on DPPH radical scavenging (in words) [1]: significant scavenging activity
- SC50 [1]: 48.8 ± 2.9 µM
- IC50 [2]: > 200 µM
- IC50 (A549): > 200 µM
- IC50 [3, 5]: > 200 µM
- IC50 (MKN45): > 200 µM

Compound: CCOC(=O)/C=C/c1ccc(O)c(OC)c1 [Compound 21, 3-O-ethyl ferulate]
- IC50 (SiHa): > 200 µM
- IC50 (NCI-H292): > 200 µM
- SC50 [1]: 50.8 ± 1.4 µM
- IC50 [2]: > 200 µM
- IC50 (A549): > 200 µM
- IC50 [3, 5]: 28.6 ± 3 µM
- IC50 (MKN45): > 200 µM
- anti-inflammatory effects against LPS-induced acute lung injury [4]: obvious anti-inflammatory effects

Compound: O=C(O)/C=C/c1ccc(O)cc1 [Compound 22, p-coumaric acid]
- IC50 (SiHa): > 200 µM
- IC50 (NCI-H292): > 200 µM
- IC50 [2]: > 200 µM
- IC50 (A549): > 200 µM
- IC50 [3, 5]: > 200 µM
- IC50 (MKN45): > 200 µM

Compound: COc1cc(/C=C/CO)cc(OC)c1O[C@@H]1O[C@H](CO)[C@@H](O)[C@H](O)[C@H]1O [Compound 24, syringin]
- IC50 (SiHa): > 200 µM
- IC50 (NCI-H292): > 200 µM
- IC50 [2]: > 200 µM
- IC50 (A549): > 200 µM
- IC50 ([3]; RAW264.7, 24 h): > 200 µM
- IC50 (MKN45): > 200 µM

Compound: COc1cc(/C=C/CO)ccc1O[C@@H]1O[C@H](CO)[C@@H](O)[C@H](O)[C@H]1O [Compound 25, coniferin]
- IC50 (SiHa): > 200 µM
- IC50 (NCI-H292): > 200 µM
- IC50 [2]: > 200 µM
- IC50 (A549): > 200 µM
- IC50 [3, 5]: > 200 µM
- IC50 (MKN45): > 200 µM

Compound: COc1cc([C@@H](OC)[C@H](O)CO)ccc1O [Compound 26, alatusol D]
- IC50 (SiHa): > 200 µM
- IC50 (NCI-H292): > 200 µM
- antioxidant activity on DPPH radical scavenging (in words) [1]: weak antioxidant activities
- SC50 [1]: 284.0 ± 16.5 µM
- IC50 [2]: > 200 µM
- IC50 (A549): > 200 µM
- IC50 [3, 5]: > 200 µM
- IC50 (MKN45): > 200 µM

Compound: COc1cc(/C=C/C=O)cc(OC)c1O[C@@H]1O[C@H](CO)[C@@H](O)[C@H](O)[C@H]1O [Compound 29, sinapaldehyde glucoside]
- IC50 (SiHa): > 200 µM
- IC50 (NCI-H292): > 200 µM
- IC50 [2]: > 200 µM
- IC50 (A549): > 200 µM
- IC50 ([3]; RAW264.7, 24 h): > 200 µM
- IC50 (MKN45): > 200 µM

Compound: scopolin [Compound 27]
- IC50 (RAW 264.7 cells): > 200 µM
